In patent publication US20250108038A1 (priority 2023, published 2025):
“Also recorded” adds a separate entry of the source.

How the values were obtained:
[1] = tested on: Wistar rats; experiment: Five Choice Serial Reaction Time Task, variable intertrial interval (vITI), acute; format: in vivo, Wistar rat; conditions: for % hit rate: Compound I-4 0.1-1.0 mg/kg ip, Compound I-19 0.03-1.0 mg/kg ip; for % correct / Magazine Head Entries / Omissions / number of trials completed / perseverative responses / premature responses / response latencies (correct, incorrect) / reward latencies / timeout responses: same doses
Description: Animals were trained in eight automated 5C-SRTT operant chambers (Med Associates, St. Albans, VT, USA), controlled by MedPC software (Med Associates). Briefly, each operant chamber was equipped with 5 apertures containing a photocell beam to detect nose pokes and a lamp (2.8 W) that could be illuminated randomly at varying durations. Food pellets (45 mg chow pellet, BioServ, Frenchtown, NJ, USA) were delivered automatically to a magazine, located on the opposite wall to the nose pokes, that was also equipped with a light that turned on to indicate that a pellet had been dispensed. The house-light remained on for the entire session unless an error or omission occurred. Training sessions began with the delivery of a food reward and retrieval triggered the first trial. […] Training began with the stimulus duration set at 10 sec, a limited hold period of 5 sec and an ITI of 5 sec. […] Sessions ended when 40 minutes had lapsed or 100 trials had been completed.
Upon meeting the performance criteria, animals were assessed in the vSD version of the task where the following stimulus durations were presented in a pseudorandom manner: 0.3, 0.6 and 0.9 sec. Later, subjects were assessed in the vITI version where 2.5, 5.0 and 10.0 sec ITIs were employed in a pseudorandom manner. Performance parameters measured were: % hit ((# correct/(# correct+# incorrect including omissions))×100); % correct ((# correct/(# correct+# incorrect excluding omissions))×100); premature responses (# of nose-pokes into any aperture after trial initiation but before onset of the stimulus light); timeout responses (# of nose pokes into any aperture during a timeout period), perseverative responses (# of nose pokes occurring after the correct response had been made but before reward collection); # of food magazine head entries, omissions and total trials completed. The latency to correct response (time taken from the onset of the nose poke light stimulus to making the correct nose poke response), latency to incorrect response (time taken from onset of nose poke light stimulus to making the incorrect nose poke response), and latency to reward (i.e., the magazine latency, time taken from making a correct nose poke response to retrieving the reward from the magazine) was also recorded.
Drug doses and vehicle were administered in a pseudorandom fashion. Drug or vehicle sessions were performed 1-2 times per week with maintenance training (behavioral testing without drug or vehicle injections) interspersed.
All data were collated and entered into Microsoft Excel spreadsheets. The data were subsequently imported into StatView 5.0 for statistical analyses. One and two factor analysis of variance (ANOVA) tests were used with repeated measures when indicated, followed by Fisher LSD or Student Newman Keuls as post-hoc tests. All results were expressed as the mean (±S.E.M.). Differences between means from experimental groups were considered significant at the p<0.05 level. The statistical F values and degrees of freedom associated with the two factor ANOVA analyses are provided in the text of this report. Please refer to the statistical reports in the appendices for the values associated with one factor ANOVAs for the overall means and overall total values.

[2] = target: T1, BCRP (Homo sapiens, UniProt Q9UNQ0); experiment: Vesicular transport inhibition assay, BCRP (estrone-3-sulfate); conditions: for Maximum % inhibition: BCRP, inside-out membrane vesicles, E3S (1 μM), NIO: No inhibition observed
T1 sequence (Q9UNQ0 1-655): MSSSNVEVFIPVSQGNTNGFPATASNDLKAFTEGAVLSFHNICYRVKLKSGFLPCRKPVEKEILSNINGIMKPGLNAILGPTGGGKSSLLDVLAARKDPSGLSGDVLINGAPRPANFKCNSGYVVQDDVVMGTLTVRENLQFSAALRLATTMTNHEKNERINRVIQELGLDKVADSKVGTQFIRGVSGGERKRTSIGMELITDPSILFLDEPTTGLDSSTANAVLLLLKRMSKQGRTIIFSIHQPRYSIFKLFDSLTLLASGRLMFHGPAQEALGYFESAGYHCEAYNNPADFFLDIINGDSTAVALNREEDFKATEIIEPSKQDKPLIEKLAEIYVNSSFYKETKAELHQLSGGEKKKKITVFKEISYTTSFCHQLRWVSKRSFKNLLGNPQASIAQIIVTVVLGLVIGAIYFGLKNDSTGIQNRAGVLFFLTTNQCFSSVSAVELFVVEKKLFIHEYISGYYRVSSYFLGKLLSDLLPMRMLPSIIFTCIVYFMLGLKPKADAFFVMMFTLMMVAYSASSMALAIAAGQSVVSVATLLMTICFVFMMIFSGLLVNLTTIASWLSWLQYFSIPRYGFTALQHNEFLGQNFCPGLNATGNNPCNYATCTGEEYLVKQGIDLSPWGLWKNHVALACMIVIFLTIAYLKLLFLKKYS
Description: Vesicular transport assays were performed with inside-out membrane vesicles prepared from cells overexpressing human ABC (efflux) transporters. The transporters were expressed by SOLVO Biotechnology in mammalian (HEK293) cells. The mammalian cells were stably transfected with the ABC transporter of interest. The assays were conducted according to the actual SOLVO VT assay protocols (PR-ASY-VT-General Protocol for Vesicular Transport Inhibition Assays).
The membrane vesicle suspension was mixed with the ice-cold transport buffer, then the probe substrate solution was added. […] (for BCRP and MDR1). […] Reactions were quenched by the addition of 200 μL of ice-cold washing buffer and immediate filtration via glass fiber filters mounted to a 96-well plate (filter plate). The filters were washed (5×200 μL of ice-cold washing buffer), dried and the amount of substrate inside the filtered vesicles was determined by liquid scintillation counting.
Incubation with AMP provided background activity values for all data points.

[3] = 0.14 μM nominal, follow-up assay
[4] = 1.24 μM nominal, follow-up assay
[5] = 11.11 μM nominal, follow-up assay
[6] = 33.33 μM nominal, follow-up assay
[7] = 100.00 μM nominal, follow-up assay

COCCOC1(c2ccc(Cl)cc2)c2ccccc2C2=NCCN21 (stereo not shown) [Compound I-4]
% hit rate [1]: modest decrease in the % hit rate
% correct [1]: no statistically significant dose-related effects
Magazine Head Entries [1]: decreases in the number of premature responses, timeout responses, and magazine head entries
Omissions [1]: increase in the number of omissions
number of trials completed [1]: the number of trials completed was not affected
perseverative responses [1]: no statistically significant effects on perseverative responses
premature responses [1]: decrease in the number of premature responses
response latencies (correct, incorrect) [1]: increases in the response and reward latencies
reward latencies [1]: increases in the response and reward latencies
timeout responses [1]: decreases in the number of premature responses, timeout responses, and magazine head entries

OC1(c2ccc(Cl)cc2)c2ccccc2C2=NCCN21 (stereo not shown) [Compound A, 5-(4-chlorophenyl)-2,3-dihydroimidazo[1,2-b]isoindol-5-ol, reference compound]
Relative ATP-dependent transport ([2]; 5.00 μM nominal): 100.28 ± 5.84 % of control
Relative ATP-dependent transport ([2]; 50.00 μM nominal): 97.83 ± 3.82 % of control
maximum inhibition of BCRP-mediated E3S accumulation ([2]; 2-concentration assay, up to 100 μM (Compound A up to 50 μM)): did not inhibit; also recorded: not an in vitro inhibitor
Maximum % inhibition [2]: NIO
inhibition at 5 μM ([2]; human): 0%
inhibition at 50 μM ([2]; human): 2%

Clc1ccc(C2(OCC3OCCO3)c3ccccc3C3=NCCN32)cc1 (stereo not shown) [Compound I-19]
ATP-dependent transport [2, 3]: 13,445.33 ± 1,138.41 cpm
Relative ATP-dependent transport [2, 3]: 98.49 ± 11.79 % of control
Relative inhibition [2, 3]: 2%
ATP-dependent transport [2, 4]: 12,617.00 ± 500.27 cpm
Relative ATP-dependent transport [2, 4]: 92.42 ± 8.64 % of control
Relative inhibition [2, 4]: 8%
ATP-dependent transport ([2]; 10.00 μM nominal): 15,363.00 ± 602.94^ cpm
Relative ATP-dependent transport ([2]; 10.00 μM nominal): 94.72 ± 7.53 % of control
Relative inhibition ([2]; 10.00 μM nominal): 5%
ATP-dependent transport [2, 5]: 12,797.67 ± 194.88 cpm
Relative ATP-dependent transport [2, 5]: 93.75 ± 8.06 % of control
Relative inhibition [2, 5]: 6%
ATP-dependent transport [2, 6]: 10,739.00 ± 289.94 cpm
Relative ATP-dependent transport [2, 6]: 78.67 ± 6.99 % of control
Relative inhibition [2, 6]: 21%
ATP-dependent transport ([2]; 100.00 μM nominal): 7,418.33 ± 222.69 cpm
Relative ATP-dependent transport ([2]; 100.00 μM nominal): 45.74 ± 3.45 % of control
Relative inhibition ([2]; 100.00 μM nominal): 54%
ATP-dependent transport [2, 7]: 7,718.00 ± 183.19 cpm
Relative ATP-dependent transport [2, 7]: 56.54 ± 4.97 % of control
Relative inhibition [2, 7]: 43%
Maximum % inhibition [2]: 43%
maximum inhibition of BCRP-mediated E3S accumulation ([2]; follow-up assay, seven concentrations): 43%
% hit rate [1]: modest decrease in the % hit rate
% correct [1]: no statistically significant dose-related effects
Magazine Head Entries [1]: decrease in the number of premature responses, timeout responses, and magazine head entries
Omissions [1]: increase in the number of omissions
number of trials completed [1]: not significantly affected
perseverative responses [1]: no statistically significant effects on perseverative responses
premature responses [1]: decreases in the number of premature responses
response latencies (correct, incorrect) [1]: modest increases in the response latencies
reward latencies [1]: not significantly affected
timeout responses [1]: decrease in the number of premature responses, timeout responses, and magazine head entries
